Source: US20230338398A1, “USE OF DELTA-8-THC TO TREAT INFLAMMATORY AND AUTOIMMUNE DISEASES” (UNIVERSITY OF SOUTH CAROLINA, priority 2022, published 2023)
Entries after “also recorded” stand apart in the source; their conditions may differ.

Assays:
CB1 receptors = CB1 receptors (Homo sapiens, UniProt P21554); conditions: CB1 receptors located in the CNS; cited from earlier work
[1] = tested on: Experimental Autoimmune Encephalomyelitis (EAE); test: Experimental Autoimmune Encephalomyelitis (EAE) model: clinical score and body weight; format: in vivo; conditions: EAE C57BL/6 mice, 10 mg/kg intraperitoneally every day from day 10, vs vehicle
Protocol: 6-8 weeks old Female C57BL/6 mice were purchased from Jackson Laboratory (Bar Harbor, ME). Animals colonies were maintained in accordance with Federal regulations and guidelines set by the animal facility of the University of South Carolina Institutional Animal Care and Use Committee (IACUC). Mice were housed in a single room under controlled temperature (22° C.), identical SPF, 50% relative humidity, and photoperiods (12:12 hours light/dark cycle). Animals were allowed unlimited access (ad libitum feeding) to autoclaved drinking water and a standard irradiated soy-free mouse chow. The health of the animals was monitored daily by the veterinarian in the animal facility.
EAE is a model for human Multiple Sclerosis. EAE was induced in 6-8 weeks old Female C57BL/6 mice through subcutaneous immunization with 100 μl of 150 μg MOG35-55 peptide (PolyPeptide Laboratories San Diego, CA, USA) along with heat killed Mycobacterium Tuberculosis 8 mg/ml (strain H37Ra) (BD, Franklin Lakes, NJ, USA), emulsified in PBS and complete Freund's adjuvant (CFA) (Fisher, Hampton, NH, USA). Mice also received two subsequent doses of 200 and 400 ng of pertussis toxin intraperitoneally on day 0 and 2, respectively (List Biological Laboratories, Campbell, CA, USA). […] During the experiment, animals were weighed for weight change and scored for disease progression on a daily basis. The mean body weight and clinical scores were calculated daily for each group. Clinical scores were recorded as follows: 0, healthy; 1, tail atony; 2, partial paralysis of hind limbs; 3, complete paralysis of hind limbs in combination with partial front limb paralysis; 4, tetraplegia; 5, moribund.
The data were expressed as mean±SEM calculated using GraphPad Prism 9 (GraphPad Inc, La Jolla, CA) and the data sets for all experiments represent three to four experimental replicates per group. […]

[2] = tested on: immune cells from brain and spleens; test: Flow cytometry of immune cells from brain and spleens of EAE mice; format: in vivo, C57BL/6 mice
Protocol: (§1) EAE is a model for human Multiple Sclerosis. EAE was induced in 6-8 weeks old Female C57BL/6 mice through subcutaneous immunization with 100 μl of 150 μg MOG35-55 peptide (PolyPeptide Laboratories San Diego, CA, USA) along with heat killed Mycobacterium Tuberculosis 8 mg/ml (strain H37Ra) (BD, Franklin Lakes, NJ, USA), emulsified in PBS and complete Freund's adjuvant (CFA) (Fisher, Hampton, NH, USA). Mice also received two subsequent doses of 200 and 400 ng of pertussis toxin intraperitoneally on day 0 and 2, respectively (List Biological Laboratories, Campbell, CA, USA). Beginning on day 10, mice received a 100 μL intraperitoneal injection containing either a vehicle (sterile corn oil (CO) with 2% DMSO v/v) or a treatment suspension (10 mg/kg delta-8-THC in sterile CO with 2% DMSO v/v) every day till the end of the experiment. The control mice received the appropriate vehicle. On the appearance of the clinical symptoms, the animals were provided with food and water (Boost and Hydrogel) in the cage bedding to ensure their access to essential nutrients. During the experiment, animals were weighed for weight change and scored for disease progression on a daily basis. The mean body weight and clinical scores were calculated daily for each group. Clinical scores were recorded as follows: 0, healthy; 1, tail atony; 2, partial paralysis of hind limbs; 3, complete paralysis of hind limbs in combination with partial front limb paralysis; 4, tetraplegia; 5, moribund.
BD FACSCelesta flow cytometer was used to quantify the phenotypes of immune cells from brain and spleens. Cells were stained with fluorescently labeled monoclonal antibodies purchased from Biolegend (San Diego, CA). The data obtained from flow cytometer was analyzed on FlowJo software.

[3] = tested on: brain-infiltrating CD4+ T cells; test: miRNA microarray of CD4+ T cells isolated from the brain of EAE mice; format: in vivo, C57BL/6 mice
Protocol: as §1
(§2) Mononuclear cells isolated from brain were labeled with Phycoerythrin-conjugated (PE-Conjugated) anti-CD4 antibody purchased from Biolegends. […]
(§3) To analyze gene expression, total RNA was purified from brain infiltrating CD4^+ cells using miRNeasy micro kit according to the manufacturer's instructions. RNA purity and concentration were measured by using Nanodrop spectrophotometer from Thermoscientific. […] The results obtained from qRT-PCR were calculated using delta delta Ct (ΔΔCt) method.

[4] = tested on: brain infiltrating mononuclear cells; test: miRNA sequencing (miRNASeq) of brain infiltrating mononuclear cells of EAE mice
[5] = tested on: brain-infiltrating CD4+ T cells; test: qRT-PCR of brain-infiltrating CD4+ T cells from EAE mice; format: in vivo, C57BL/6 mice
Protocol: as §1, §2, §3

[6] = CD4+ T cells isolated from the brain of EAE mice, miRNA microarray

Sequence of CB1 receptors (P21554 whole entry): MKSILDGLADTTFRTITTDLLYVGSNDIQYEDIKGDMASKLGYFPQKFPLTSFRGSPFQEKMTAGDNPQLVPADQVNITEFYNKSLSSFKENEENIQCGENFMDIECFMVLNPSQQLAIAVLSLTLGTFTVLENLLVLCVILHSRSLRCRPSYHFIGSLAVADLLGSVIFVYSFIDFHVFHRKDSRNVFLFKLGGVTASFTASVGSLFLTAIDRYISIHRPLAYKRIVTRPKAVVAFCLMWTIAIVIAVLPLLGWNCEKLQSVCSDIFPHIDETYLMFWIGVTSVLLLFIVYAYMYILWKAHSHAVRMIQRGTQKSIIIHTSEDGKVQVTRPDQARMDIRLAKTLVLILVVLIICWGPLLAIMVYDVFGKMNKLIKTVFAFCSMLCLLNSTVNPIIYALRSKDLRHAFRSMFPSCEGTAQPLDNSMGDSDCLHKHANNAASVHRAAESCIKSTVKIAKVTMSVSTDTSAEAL

SMILES: CCCCCc1cc(O)c2c(c1)OC(C)(C)[C@@H]1CC=C(C)C[C@@H]21 [Δ-8-THC, delta-8-tetrahydrocannabinol]
- activity at CB1 receptors (CB1 receptors): partial agonist
- body weight [1]: increase; also recorded: attenuated
- disease clinical scores / paralysis [1]: highly significant reduction; also recorded: attenuated; also recorded: decreased levels of paralysis
- body weight ([1]; listed as Δ8-THC): gain weight
- IL-17+ CD4+ T cells in the brains ([2]; brain): decrease
- RORγt+ (Th17) cells in the brains ([2]; brain): decrease
- Th1 cells (T-bet) in the brain ([2]; brain, expression of T-bet): not in the brain; also recorded: decrease
- IL-17+ CD4+ T cells in the brains ([2]; brain, listed as Δ8-THC): decreased
- RORγt+ (Th17) cells in the brains ([2]; brain, listed as Δ8-THC): decreased
- percentage of macrophages in the brain ([2]; brain-infiltrating pro-inflammatory macrophages): decreased
- percentage of CD4+ T cells in the brain ([2]; flow cytometry, brain): decrease
- percentage of CD4+ T cells in the spleens ([2]; flow cytometry, spleen): decrease
- IL-17+ CD4+ T cells in the spleens ([2]; spleen): decreased
- RORγt+ (Th17) cells in the spleens ([2]; spleen): decrease
- Th1 cells expressing IFN-gamma in the spleens ([2]; spleen): decrease
- percentage of macrophages in the spleens ([2]; spleen): decrease
- Th1 cells (T-bet) in the spleen ([2]; spleen, expression of T-bet): decrease
- RORγt+ (Th17) cells in the spleens ([2]; spleen, listed as Δ8-THC): decreased
- expression of miR-21, miR-27a, miR-29a, miR-30a, miR-31, miR-146a, miR-155, and miR-326 [3, 6]: downregulated
- expression of miR-let7, miR-130a, miR-181a, miR-328a and miR-448 [3, 6]: upregulating
- miR expression profile ([3]; brain-infiltrating CD4+ T cells from EAE mice, compared to the controls): distinct signature profile
- miRNA expression (miRNASeq) [4]: regulates a distinct set of miRNAs compared to Δ-9-THC; also recorded: unique miRNA signature profile distinct from Δ-9-THC; also recorded: differential expression of miRNAs
- Foxp3 expression [5]: increase
- IL-10 expression [5]: increased
- TGF-β expression [5]: increased
